# Measurements: ChEMBL document CHEMBL5143608, “Peptide-based long-acting co-agonists of GLP-1 and cholecystokinin 1 receptors as novel anti-diabesity agents” (Eur J Med Chem, 2022)
# Activity calls are given as the source filed them. The calls are words filed in the database; no cut-off is given here. Where a SMILES comes first, the peptide text is derived from it. [ ]: non-standard residue; d: D form. Aib = CC(C)(N)C(=O)O
# Tests used:
# [1] = test system: Mus musculus; assay: Hypoglycemic activity in ICR mouse assessed as improvement in glucose tolerance at 25 nmol/kg, ip administered 30 min before oral glucose administration and measured upto 120 mins by OGTT; assay type: functional, organism-based
# [2] = target: T1, Cholecystokinin receptor type A (Homo sapiens, UniProt P32238); assay: Agonist activity at human CCK1R expressed in HEK293 cells assessed as ERK1/2 phosphorylation incubated for 5 mins by AlphaScreen assay; assay type: functional, cell-based; conditions: hek293
# T1 sequence (P32238 whole entry): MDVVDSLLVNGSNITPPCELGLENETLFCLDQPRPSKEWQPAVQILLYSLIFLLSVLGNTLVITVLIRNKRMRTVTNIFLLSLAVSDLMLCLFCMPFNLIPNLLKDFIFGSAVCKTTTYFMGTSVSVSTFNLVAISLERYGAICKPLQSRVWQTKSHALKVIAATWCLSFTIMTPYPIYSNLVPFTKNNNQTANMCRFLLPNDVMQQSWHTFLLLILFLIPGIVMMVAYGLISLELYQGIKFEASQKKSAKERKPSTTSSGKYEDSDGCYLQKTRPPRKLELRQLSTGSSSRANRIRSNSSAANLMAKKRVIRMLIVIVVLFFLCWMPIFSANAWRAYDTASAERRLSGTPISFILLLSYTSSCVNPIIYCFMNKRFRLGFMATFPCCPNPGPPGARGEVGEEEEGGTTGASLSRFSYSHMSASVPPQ
# [3] = test system: Mus musculus; assay: Anorectic activity in ICR mouse assessed as decrease in food intake at 25 nmol/kg, ip and measured after 9 hrs; assay type: functional, organism-based
# [4] = test system: Mus musculus; assay: Anorectic activity in ICR mouse assessed as decrease in food intake at 25 nmol/kg, ip and measured after 24 hrs; assay type: functional, organism-based
# [5] = target: T2, CCK2R (gastrin/cholecystokinin type B receptor) (Homo sapiens, UniProt P32239); assay: Agonist activity at human CCK2R expressed in HEK293 cells assessed as ERK1/2 phosphorylation incubated for 5 mins by AlphaScreen assay; assay type: functional, cell-based; conditions: human, HEK293 cells expressing human CCK2R
# T2 sequence (P32239 whole entry): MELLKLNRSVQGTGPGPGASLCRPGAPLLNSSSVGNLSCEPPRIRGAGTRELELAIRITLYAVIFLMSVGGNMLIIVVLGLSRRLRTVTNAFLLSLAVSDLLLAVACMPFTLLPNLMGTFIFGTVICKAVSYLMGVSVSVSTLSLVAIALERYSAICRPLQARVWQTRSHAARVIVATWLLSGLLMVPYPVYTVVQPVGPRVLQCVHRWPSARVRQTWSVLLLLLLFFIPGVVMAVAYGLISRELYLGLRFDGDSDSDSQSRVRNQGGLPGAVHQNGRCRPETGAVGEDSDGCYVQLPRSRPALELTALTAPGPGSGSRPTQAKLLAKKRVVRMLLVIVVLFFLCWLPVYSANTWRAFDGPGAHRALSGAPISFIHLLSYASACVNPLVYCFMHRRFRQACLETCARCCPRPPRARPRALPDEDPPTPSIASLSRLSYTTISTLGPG
# [6] = target: Glucagon-like peptide 1 receptor (Homo sapiens, UniProt P43220); assay: Agonist activity at human GLP-1R expressed in HEK293 cells assessed as cAMP release incubated for 20 min by HTRF analysis; assay type: functional, cell-based
# Glucagon-like peptide 1 receptor, sequence (P43220 whole entry): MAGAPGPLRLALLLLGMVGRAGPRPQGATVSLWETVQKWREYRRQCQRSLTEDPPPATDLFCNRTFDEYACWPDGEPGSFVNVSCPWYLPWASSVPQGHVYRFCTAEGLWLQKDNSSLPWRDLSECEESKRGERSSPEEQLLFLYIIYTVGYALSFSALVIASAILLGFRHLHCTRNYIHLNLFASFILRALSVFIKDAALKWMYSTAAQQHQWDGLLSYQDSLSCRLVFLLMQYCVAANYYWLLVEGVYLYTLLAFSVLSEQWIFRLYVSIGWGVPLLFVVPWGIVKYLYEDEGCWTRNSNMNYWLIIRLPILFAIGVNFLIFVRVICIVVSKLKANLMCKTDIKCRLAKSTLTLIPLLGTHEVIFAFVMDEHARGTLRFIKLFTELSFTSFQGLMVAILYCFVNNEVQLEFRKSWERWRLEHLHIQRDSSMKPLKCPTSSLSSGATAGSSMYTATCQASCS
SMILES,EC50 [2],EC50 ([6]; hek293),EC50 [6],Activity [1],Activity [3],Activity [4],EC50 at 5 min [5]
CCCC[C@H](NC(=O)[C@H](Cc1ccc(CS(=O)(=O)O)cc1)NC(=O)[C@H](CC(=O)O)NC(=O)COCCOCCNC(=O)COCCOCCNC(=O)[C@H](CCCNC(=N)N)NC(=O)CNC(=O)[C@H](CCCCN)NC(=O)[C@@H](NC(=O)[C@H](CC(C)C)NC(=O)[C@H](Cc1c[nH]c2ccccc12)NC(=O)[C@H](C)NC(=O)[C@@H](NC(=O)[C@H](Cc1ccccc1)NC(=O)[C@H](CCC(=O)O)NC(=O)[C@H](CCCCN)NC(=O)[C@H](C)NC(=O)[C@H](C)NC(=O)[C@H](CCC(N)=O)NC(=O)CNC(=O)[C@H](CCC(=O)O)NC(=O)[C@H](CC(C)C)NC(=O)[C@H](Cc1ccc(O)cc1)NC(=O)[C@H](CO)NC(=O)[C@H](CO)NC(=O)[C@@H](NC(=O)[C@H](CC(=O)O)NC(=O)[C@H](CO)NC(=O)[C@@H](NC(=O)[C@H](Cc1ccccc1)NC(=O)[C@@H](NC(=O)CNC(=O)[C@H](CCC(=O)O)NC(=O)[C@H](C)NC(=O)[C@@H](N)Cc1cnc[nH]1)[C@@H](C)O)[C@@H](C)O)C(C)C)[C@@H](C)CC)C(C)C)C(=O)NCC(=O)N[C@@H](Cc1c[nH]c2ccccc12)C(=O)N[C@@H](CCCC)C(=O)N(C)[C@H](CC(=O)O)C(=O)N(C)[C@@H](Cc1ccccc1)C(N)=O,1.14 nM,–,–,Active,Active,Active,> 100 nM
CCCC[C@H](NC(=O)[C@H](Cc1ccc(CS(=O)(=O)O)cc1)NC(=O)[C@H](CC(=O)O)NC(=O)COCCOCCNC(=O)COCCOCCNC(=O)[C@H](CCCCN)NC(=O)CNC(=O)[C@H](CCCCNC(=O)COCCOCCNC(=O)COCCOCCNC(=O)CC[C@H](NC(=O)CCCCCCCCCCCCCCCCC(=O)O)C(=O)O)NC(=O)[C@@H](NC(=O)[C@H](CC(C)C)NC(=O)[C@H](Cc1c[nH]c2ccccc12)NC(=O)[C@H](CCC(=O)O)NC(=O)[C@@H](NC(=O)[C@H](Cc1ccccc1)NC(=O)[C@H](CCC(=O)O)NC(=O)[C@H](CCCCN)NC(=O)[C@H](C)NC(=O)[C@H](C)NC(=O)[C@H](CCC(=O)O)NC(=O)[C@H](CCC(=O)O)NC(=O)[C@H](CCC(=O)O)NC(=O)[C@H](CC(C)C)NC(=O)[C@@H](NC(=O)[C@H](CCC(=O)O)NC(=O)[C@@H](NC(=O)[C@@H](NC(=O)[C@H](CC(=O)O)NC(=O)[C@H](CC(N)=O)NC(=O)[C@@H](NC(=O)[C@H](Cc1ccc(O)cc1)NC(=O)[C@@H](NC(=O)CNC(=O)[C@H](CCC(=O)O)NC(=O)C(C)(C)NC(=O)[C@@H](N)Cc1cnc[nH]1)[C@@H](C)O)[C@@H](C)O)C(C)C)[C@@H](C)O)[C@@H](C)O)[C@@H](C)CC)[C@@H](C)CC)C(=O)NCC(=O)N[C@@H](Cc1c[nH]c2ccccc12)C(=O)N[C@@H](CCCC)C(=O)N(C)[C@H](CC(=O)O)C(=O)N(C)[C@@H](Cc1ccccc1)C(N)=O,1.03 nM,0.31 nM,–,Active,Active,Active,> 100 nM
CC[C@H](C)[C@H](NC(=O)[C@H](CC(C)C)NC(=O)[C@H](Cc1c[nH]c2ccccc12)NC(=O)[C@H](CCC(=O)O)NC(=O)[C@@H](NC(=O)[C@H](Cc1ccccc1)NC(=O)[C@H](CCC(=O)O)NC(=O)[C@H](CCCCN)NC(=O)[C@H](C)NC(=O)[C@H](C)NC(=O)[C@H](CCC(=O)O)NC(=O)[C@H](CCC(=O)O)NC(=O)[C@H](CCC(=O)O)NC(=O)[C@H](CC(C)C)NC(=O)[C@@H](NC(=O)[C@H](CCC(=O)O)NC(=O)[C@@H](NC(=O)[C@@H](NC(=O)[C@H](CC(=O)O)NC(=O)[C@H](CC(N)=O)NC(=O)[C@@H](NC(=O)[C@H](Cc1ccc(O)cc1)NC(=O)[C@@H](NC(=O)CNC(=O)[C@H](CCC(=O)O)NC(=O)C(C)(C)NC(=O)[C@@H](N)Cc1cnc[nH]1)[C@@H](C)O)[C@@H](C)O)C(C)C)[C@@H](C)O)[C@@H](C)O)[C@@H](C)CC)C(=O)N[C@@H](CCCCN)C(=O)NCC(=O)N[C@@H](CCCCN)C(N)=O (H-H[Aib]EGTYTNDVTETLEEEAAKEFIEWLIKGK-NH2),–,–,0.056 nM,–,–,–,–

# More lines, in order of falling EC50 [2], values ahead:
EC50 [2],EC50 ([6]; hek293),EC50 [6],SMILES,Activity [1],Activity [3],Activity [4],EC50 at 5 min [5]
1.19 nM,–,–,CCCC[C@H](NC(=O)[C@H](Cc1ccc(CS(=O)(=O)O)cc1)NC(=O)[C@H](CC(=O)O)NC(=O)COCCOCCNC(=O)COCCOCCNC(=O)[C@H](CCCNC(=N)N)NC(=O)CNC(=O)[C@H](CCCCNC(=O)COCCOCCNC(=O)COCCOCCNC(=O)CC[C@H](NC(=O)CCCCCCCCCCCCCCCCC(=O)O)C(=O)O)NC(=O)[C@@H](NC(=O)[C@H](CC(C)C)NC(=O)[C@H](Cc1c[nH]c2ccccc12)NC(=O)[C@H](C)NC(=O)[C@@H](NC(=O)[C@H](Cc1ccccc1)NC(=O)[C@H](CCC(=O)O)NC(=O)[C@H](CCCCN)NC(=O)[C@H](C)NC(=O)[C@H](C)NC(=O)[C@H](CCC(N)=O)NC(=O)CNC(=O)[C@H](CCC(=O)O)NC(=O)[C@H](CC(C)C)NC(=O)[C@H](Cc1ccc(O)cc1)NC(=O)[C@H](CO)NC(=O)[C@H](CO)NC(=O)[C@@H](NC(=O)[C@H](CC(=O)O)NC(=O)[C@H](CO)NC(=O)[C@@H](NC(=O)[C@H](Cc1ccccc1)NC(=O)[C@@H](NC(=O)CNC(=O)[C@H](CCC(=O)O)NC(=O)[C@H](C)NC(=O)[C@@H](N)Cc1cnc[nH]1)[C@@H](C)O)[C@@H](C)O)C(C)C)[C@@H](C)CC)C(C)C)C(=O)NCC(=O)N[C@@H](Cc1c[nH]c2ccccc12)C(=O)N[C@@H](CCCC)C(=O)N(C)[C@H](CC(=O)O)C(=O)N(C)[C@@H](Cc1ccccc1)C(N)=O,–,Active,Active,> 100 nM
0.95 nM,0.092 nM,–,CCCC[C@H](NC(=O)[C@H](Cc1ccc(CS(=O)(=O)O)cc1)NC(=O)[C@H](CC(=O)O)NC(=O)COCCOCCNC(=O)COCCOCCNC(=O)[C@H](CCCCN)NC(=O)CNC(=O)[C@H](CCCCN)NC(=O)[C@@H](NC(=O)[C@H](CC(C)C)NC(=O)[C@H](Cc1c[nH]c2ccccc12)NC(=O)[C@H](CCC(=O)O)NC(=O)[C@@H](NC(=O)[C@H](Cc1ccccc1)NC(=O)[C@H](CCC(=O)O)NC(=O)[C@H](CCCCN)NC(=O)[C@H](C)NC(=O)[C@H](C)NC(=O)[C@H](CCC(=O)O)NC(=O)[C@H](CCC(=O)O)NC(=O)[C@H](CCC(=O)O)NC(=O)[C@H](CC(C)C)NC(=O)[C@@H](NC(=O)[C@H](CCC(=O)O)NC(=O)[C@@H](NC(=O)[C@@H](NC(=O)[C@H](CC(=O)O)NC(=O)[C@H](CC(N)=O)NC(=O)[C@@H](NC(=O)[C@H](Cc1ccc(O)cc1)NC(=O)[C@@H](NC(=O)CNC(=O)[C@H](CCC(=O)O)NC(=O)C(C)(C)NC(=O)[C@@H](N)Cc1cnc[nH]1)[C@@H](C)O)[C@@H](C)O)C(C)C)[C@@H](C)O)[C@@H](C)O)[C@@H](C)CC)[C@@H](C)CC)C(=O)NCC(=O)N[C@@H](Cc1c[nH]c2ccccc12)C(=O)N[C@@H](CCCC)C(=O)N(C)[C@H](CC(=O)O)C(=O)N(C)[C@@H](Cc1ccccc1)C(N)=O,Active,Active,Active,> 100 nM
